Results taken from patent US20020137929A1, “1 - (3-heterocyclylphenyl) isothiourea, -isourea, -guanidine and -amidine herbicidal agents” (Intellectual Property Department, BASF Aktiengesellschaft, priority 1998, published 2002).

How the values were obtained:
[1] = system: CHEAL (Lambsquarters, Common); assay: Postemergence herbicidal evaluation; format: in vivo, Chenopodium album
Outline: (§1)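 Rate range approx. 0.0156–0.500 kg/ha. Foliar application at 40 psi to ~2-week seedlings; surfactant 0.5% TWEEN 20 in 50/50 acetone/water. Evaluation 4–5 wk post-treatment by 0–9 visual injury score, means of replicate tests.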

[2] = system: IPOHE (Morningglory, Ivyleaf); assay: Postemergence herbicidal evaluation; format: in vivo, Ipomoea hederacea
Outline: as §1

GALAP (Galium) = assay: Preemergence herbicidal evaluation; format: in vivo, Galium aparine; conditions: rated 4-5 weeks after treatment
Outline: (§2)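 Greenhouse preemergence test: seed-soil mix sown on ~1 inch soil; aqueous acetone spray at equivalent of ~0.0156–0.500 kg/ha; greenhouse-held and watered; scored 0–9 visually at 4–5 weeks.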

ECHCG (Barnyardgrass) = assay: Preemergence herbicidal evaluation; format: in vivo, Echinochloa crus-galli; conditions: rated 4-5 weeks after treatment
Outline: as §2

[3] = system: GLXMAW (Soybean, Williams); assay: Preemergence herbicidal evaluation; format: in vivo, Glycine max, (L.) Merr. cv Williams; conditions: rated 4-5 weeks after treatment
Outline: as §2

ORYSAT (Rice, Tebonnet) [4] = assay: Rice tolerance to post-transplant applications, flooded paddy conditions (Table III); format: in vivo, Oryza sativa, (L.) Tebonnet
Outline: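 Two ten-day-old Tebonnet seedlings transplanted into flooded silt loam (water 1.5 to 3 cm above soil); three days later the water surface was treated with compound in aqueous/acetone 50/50 at about 0.0313 to 0.500 kg/ha. Visual 0-9 injury rating versus control after three to four weeks in greenhouse.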

ORYSAT (Rice, Tebonnet) [5] = assay: Rice tolerance to post-transplant applications, flooded paddy conditions (Table IV); format: in vivo, Oryza sativa, (L.) Tebonnet
Text: Results of herbicide evaluation are expressed on a rating scale (0-9). The scale is based upon a visual observation of plant stand, vigor, malformation, size, chlorosis and overall plant appearance as compared with a control.
Plastic containers containing weeds which are 3 to 5 cm tall and rice seedlings at the 1.5 to 2.5 leaf stage are flooded with water. The water is maintained at 1.5 to 3 cm above the soil surface for the duration of the experiment. Test compounds are applied as aqueous/ acetone mixtures 50/50 v/v directly into the flood water to provide the equivalent of about 0.0313 to 0.500 kg/ha of active ingredient. The treated containers are placed on greenhouse benches and cared for in accordance with conventional greenhouse procedures. Three to four weeks after treatment, the test is terminated and each container is examined and herbicidal effect rated according to the rating system provided in Example 37. The compounds evaluated are reported by compound number given in Example 37.

SMILES: CCOC(=O)CCN1C(=O)CSC1=Nc1cc(-n2c(=O)cc(C(F)(F)F)n(C)c2=O)c(Cl)cc1Cl [Compound 32, Ethyl 2-{{2,4-dichloro-5-[3,6-dihydro-3-methyl-2,6-dioxo-4-(trifluoromethyl)-1(2H)-pyrimidinyl]-phenyl}imino}-4-oxo-3-thiazolidinepropionate]
- Postemergence herbicidal rating CHEAL ([1]; Rate 0.0158 kg/ha): 3.0
- Postemergence herbicidal rating CHEAL ([1]; Rate 0.0313 kg/ha): 0.0
- Postemergence herbicidal rating CHEAL ([1]; Rate 0.0625 kg/ha): 2.0
- Postemergence herbicidal rating CHEAL ([1]; Rate 0.1250 kg/ha): 6.0
- Postemergence herbicidal rating IPOHE ([2]; Rate 0.0158 kg/ha): 9.0
- Postemergence herbicidal rating IPOHE ([2]; Rate 0.0313 kg/ha): 9.0
- Postemergence herbicidal rating IPOHE ([2]; Rate 0.0625 kg/ha): 9.0
- Postemergence herbicidal rating IPOHE ([2]; Rate 0.1250 kg/ha): 9.0
- Preemergence herbicidal rating GALAP (GALAP (Galium); rate 0.0156 kg/ha): 0.0
- Preemergence herbicidal rating GALAP (GALAP (Galium); rate 0.0313 kg/ha): 0.0
- Preemergence herbicidal rating GALAP (GALAP (Galium); rate 0.0625 kg/ha): 0.0
- Preemergence herbicidal rating GALAP (GALAP (Galium); rate 0.1250 kg/ha): 0.5
- Preemergence herbicidal rating GALAP (GALAP (Galium); rate 0.2500 kg/ha): 3.5
- Preemergence herbicidal rating GALAP (GALAP (Galium); rate 0.5000 kg/ha): 7.0
- Preemergence herbicidal rating ECHCG (ECHCG (Barnyardgrass); rate 0.0156 kg/ha): 0.0
- Preemergence herbicidal rating ECHCG (ECHCG (Barnyardgrass); rate 0.0313 kg/ha): 0.0
- Preemergence herbicidal rating ECHCG (ECHCG (Barnyardgrass); rate 0.0625 kg/ha): 0.0
- Preemergence herbicidal rating ECHCG (ECHCG (Barnyardgrass); rate 0.1250 kg/ha): 0.5
- Preemergence herbicidal rating ECHCG (ECHCG (Barnyardgrass); rate 0.2500 kg/ha): 0.0
- Preemergence herbicidal rating ECHCG (ECHCG (Barnyardgrass); rate 0.5000 kg/ha): 1.0
- Preemergence herbicidal rating GLXMAW ([3]; rate 0.0156 kg/ha): 0.0
- Preemergence herbicidal rating GLXMAW ([3]; rate 0.0313 kg/ha): 0.5
- Preemergence herbicidal rating GLXMAW ([3]; rate 0.0625 kg/ha): 0.5
- Preemergence herbicidal rating GLXMAW ([3]; rate 0.1250 kg/ha): 0.5
- Preemergence herbicidal rating GLXMAW ([3]; rate 0.2500 kg/ha): 1.0
- Preemergence herbicidal rating GLXMAW ([3]; rate 0.5000 kg/ha): 3.0
- Herbicidal rating ORYSAT (rice tolerance) (ORYSAT (Rice, Tebonnet) [4]; in vivo): 0.0
- Herbicidal rating ORYSAT (rice tolerance) (ORYSAT (Rice, Tebonnet) [5]; in vivo): 0.0

SMILES: CCOP(=O)(CN1C(=O)CSC1=Nc1cc(-n2c(=O)cc(C(F)(F)F)n(C)c2=O)c(F)cc1Cl)OCC [Compound 35, Diethyl {{2-{{2-chloro-5-[3,6-dihydro-3-methyl-2,6-dioxo-4-(trifluoromethyl)-1(2H)-pyrimidinyl]-4-fluorophenyl}imino}-4-oxo-3-thiazolidinyl}methyl}phosphonate]
- Postemergence herbicidal rating CHEAL ([1]; Rate 0.0158 kg/ha): 7.0
- Postemergence herbicidal rating CHEAL ([1]; Rate 0.0315 kg/ha): 9.0
- Postemergence herbicidal rating CHEAL ([1]; Rate 0.0630 kg/ha): 9.0
- Postemergence herbicidal rating IPOHE ([2]; Rate 0.0158 kg/ha): 9.0
- Postemergence herbicidal rating IPOHE ([2]; Rate 0.0315 kg/ha): 9.0
- Postemergence herbicidal rating IPOHE ([2]; Rate 0.0630 kg/ha): 9.0
- Preemergence herbicidal rating GALAP (GALAP (Galium); rate 0.0625 kg/ha): 0.0
- Preemergence herbicidal rating GALAP (GALAP (Galium); rate 0.1250 kg/ha): 0.0
- Preemergence herbicidal rating GALAP (GALAP (Galium); rate 0.2500 kg/ha): 9.0
- Preemergence herbicidal rating ECHCG (ECHCG (Barnyardgrass); rate 0.0625 kg/ha): 0.0
- Preemergence herbicidal rating ECHCG (ECHCG (Barnyardgrass); rate 0.1250 kg/ha): 0.0
- Preemergence herbicidal rating ECHCG (ECHCG (Barnyardgrass); rate 0.2500 kg/ha): 0.0
- Preemergence herbicidal rating GLXMAW ([3]; rate 0.0625 kg/ha): 0.0
- Preemergence herbicidal rating GLXMAW ([3]; rate 0.1250 kg/ha): 0.0
- Preemergence herbicidal rating GLXMAW ([3]; rate 0.2500 kg/ha): 2.0
- Herbicidal rating ORYSAT (rice tolerance) (ORYSAT (Rice, Tebonnet) [4]; 0.1250 kg/ha, post-transplant rice, flooded paddy, rated 3-4 weeks after treatment): 2.0
- Herbicidal rating ORYSAT (rice tolerance) (ORYSAT (Rice, Tebonnet) [4]; 0.2500 kg/ha, post-transplant rice, flooded paddy, rated 3-4 weeks after treatment): 3.0
- Herbicidal rating ORYSAT (rice tolerance) (ORYSAT (Rice, Tebonnet) [5]; rate 0.1250 kg/ha, flooded paddy, post-transplant rice, 3-4 weeks after treatment): 2.0
- Herbicidal rating ORYSAT (rice tolerance) (ORYSAT (Rice, Tebonnet) [5]; rate 0.2500 kg/ha, flooded paddy, post-transplant rice, 3-4 weeks after treatment): 3.0
